According to US20170246137A1, “SULFESTROL FOR TREATING CANCER” (CHAMAELEO PHARMA BVBA, priority 2012, published 2017):
Several values for one entry are separate records, joined by “and”; a condition that tells them apart may be missing. Equal values may be shown once.

Tests used:
DU-145 = experiment: In vitro direct cytotoxicity, Cell titer Blue viability, 72 hrs; type: cell-based
Description: (§1) Cells were harvested, washed, re-suspended into growth medium and counted.
(§2) Stocks of all compounds were then serially diluted. […] Positive control was Taxotere. Taxotere was diluted in 100% DSMO to give a stock concentration of 1 mM. Stock was serially diluted. Final concentrations to which cells were exposed were 1000, 333.3, 111.1, 37.0, 12.3, 4.1, 1.4, 0.5, and 0.2 nM.

LNCaP = experiment: as above; type: cell-based
Description: as §1, §2

[1] = Concentration of Mono-Sulfestrol in pooled plasma samples, LC-UV quantification; type: in vivo, male Sprague Dawley rats; details: 10 mg/kg of the labelled compound, rat, pooled 0.5-8 hrs
Description: The concentration of Mono-Sulfestrol in the pooled samples described in Example 6 was quantified by LC-UV quantification.
A calibration standard solution was prepared as 10,000 ng/mL by adding an appropriate amount of Mono-Sulfestrol into 20% acetonitrile/0.1% formic acid in water. The peak area of the standard solution and the sample were measured with the wavelength set at 200 to 360 nm. The concentration levels of Mono-Sulfestrol were estimated using peak area (Area) of the standard and unknown samples and concentration of the standard (Concstd) by the following equation:
Areaunknown/Areastd=Concunknown/Concstd
Concunknown=Concstd·(Areaunknown/Areastd)

[2] = Metabolites in plasma after oral and intravenous administration, LC-MS/MS
Description: Metabolites were identified after oral and intravenous administration of the compounds.
Each group consisted of three rats, giving a total of 12 animals. Compounds were dosed at 10 mg/kg for both oral and intravenous administration. A 0.9% saline solution was used as vehicle for oral and intravenous administration.
Prior to intravenous administration, the solution was filtered through a 0.22 μM filter. Oral dosing was performed using a oral gavage. Tail vein injection was used for intravenous administration.
At 0.5, 1, 2, 4, 6 and 8 hrs post administration, 0.25 ml blood was drawn from the animals and immediately transferred to prechilled microcentrifuge tubes containing 4 μl of K2-EDTA to prevent coagulation. Plasma was obtained by centrifugation of the plasma and stored at −70° C. until analysis. Plasma drawn from each individual rat was pooled according to the following schedule:
The pooled samples were analyzed using LC-MS/MS and the relative percentage of each metabolite in the pooled sample was measured on the basis of the mass spectrometric peak areas of the parent and its metabolites in the plasma.

Substance: 4-(4-(4-oxidophenyl)hex-3-en-3-yl)phenyl sulfate [Mono-Sulfestrol]
- cytotoxicity in vitro (in words) (DU-145; DU-145): inactive
- IC50 value (DU-145; DU-145, hormone-independent prostate cancer cell line, 72 hrs): Not active
- cytotoxicity in vitro (in words) (LNCaP): inactive
- IC50 value (LNCaP; hormone-dependent prostate cancer cell line, 72 hrs): Not active
- Mono-Sulfestrol concentration in pooled plasma sample ([1]; intravenous): 630.0 ng/ml and 1.5 μM
- Mono-Sulfestrol concentration in pooled plasma sample ([1]; oral): 1150.6 ng/ml and 2.7 μM
- metabolic fate in rat plasma (in words) ([2]; 10 mg/kg oral and intravenous): undergoes minimal metabolic processing
- Relative Abundance ([2]; pooled rat plasma after Mono-Sulfestrol 10 mg/kg IV): IV: 86.99%
- Relative Abundance ([2]; pooled rat plasma after Mono-Sulfestrol 10 mg/kg PO): PO: 91.91%
